Test results from patent publication US6407083B1, “Uses of novel organoselenium compounds with pro-oxidant activity” (Oxis International, Inc., priority 1996, dated 2002).
Blank lines part the entries; values can stand above or below the compound they belong to.

What was measured:
[1] = test system: NADPH in the presence of glutathione (GSH) and glutathione disulfide reductase; assay: Glutathione oxidase activity (consumption of NADPH in the presence of GSH and glutathione disulfide reductase); format: biochemical; conditions: pH 7.3, 37° C.
Method: To 1.5 ml of 50 mM HEPES buffer, pH 7.3, containing 2.47 mM of reduced glutathione (GSH), 0.32 mM of nicotinamide adenine dinucleotide phosphate (NADPH), and 1.23 units/ml of glutathione disulfide reductase (GR), at 37° C., are added, in the following order:
320 μl of 50 mM HEPES buffer, pH 7.3, containing 0.1 mM of DTPA, pre-equilibrated at 37° C.
30 μl of a 5 mM ethanolic mother-solution of the compound under test or 30 μl of absolute ethanol (blank). Each compound is tested at a final concentration of 81 μM.
The final reaction volume is 1850 μl.
The glutathione oxidase activity is assayed at 37° C. by measuring the reduction in absorbance at 340 nm over 5 minutes. The said initial enzymatic rate or activity is proportional to the slope of the plot of absorbance against time.
The catalytic activity for oxygen reduction in the compounds under test corresponds to the rate of consumption of NADPH.
Furthermore, the effects of superoxide dismutase (SOD), catalase, iodoacetamide (IAA) and Se-GPx on the glutathione oxidase activity of the tested compounds have been studied.
the necessary and sufficient quantity, variable according to the case, of 50 mM HEPES, pH 7.3, containing 0.1 mM of DTPA, pre-equilibrated at 37° C.; the final reaction volume being 1850 μl.
either 100 μl of a solution of 1850 units/ml of SOD in water of ultrapure quality,
or 100 μl of a solution of 1850 units/ml of catalase in water of ultrapure quality and 100 μl of a solution of 1850 units/ml of SOD in water of ultrapure quality,
or 150 μl of a 6.2 mM solution of iodoacetamide in 50 mM HEPES buffer, pH 7.3, containing 0.1 mM DTPA,
or 100 μl of a solution of 10 units/ml of glutathione peroxidase Se-GPx in 50 mM HEPES buffer, pH 7.3, containing 0.1 mM of DTPA,
or 100 μl of a solution of 1850 units/ml of SOD in water of ultrapure quality, and 100 μl of a solution of 10 units/ml of glutathione peroxidase Se-GPx in 50 mM HEPES buffer, pH 7.3, containing 0.1 mM of DTPA.
30 μl of a 5 mM ethanolic mother-solution of the compound under test.
The glutathione oxidase activity is assayed at 37° C. by monitoring the decrease in the absorbance at 340 nm over 15 minutes. The said initial enzymatic rate or activity is proportional to the slope of the plot of absorbance against time.
The consumption of NADPH has been calculated from the slopes of the curves obtained (OD/minute): [formula]
Vt=total volume of the reaction =1850 μl
ε=molar extinction coefficient of NADPH=[…]. M^−1. cm^−1
They are expressed in nmoles of NADPH oxidized per minute.

[2] = test system: MCF-7 cells from a breast cancer of human origin; assay: Cytotoxicity on MCF-7 cells (MTT viability test); format: cell-based; conditions: for mortality at 0.195 µM: MCF7, 0.195 μM; for mortality at 0.391 µM: MCF7, 0.391 μM; for mortality at 0.781 µM: MCF7, 0.781 μM; for mortality at 1.562 µM: MCF7, 1.562 μM; for mortality at 3.125 µM: MCF7, 3.125 μM; for mortality at 6.25 µM: MCF7, 6.25 μM; for mortality at 12.5 µM: MCF7, 12.5 μM; for mortality at 25 µM: MCF7, 25 μM; for mortality at 50 µM: MCF7, 50 μM
Method: The MCF-7 cells from a breast cancer of human origin are cultivated, in an atmosphere of a gaseous mixture of 95% air and 5% CO2, saturated with water, two days before the test, in order to be in a growth phase during the toxicity test. The cells are trypsinized and are collected in a RPMI 1640 medium containing 10% FCS, 10 mM HEPES, 1 mM pyruvate, 4 mM L-glutamine, 100 U/ml penicillin, 100 μg/ml streptomycin, in order to be centrifuged at 1,500 rpm for 10 minutes. The cell pellet is resuspended in the same medium in order to obtain a cell density of 30,000 cells/cm^2.
The compounds of general structure IA described in the present invention are solubilised at 10 mM in absolute ethanol and diluted in RPMI-10% FCS culture medium, the final volume of ethanol in the reaction medium is 0.5% (v/v). The molecules are studied at the following concentrations: 50; 25; 12.5; 6.25; 3.125; 1.562; 0.781; 0.391 and 0.195 μM. Two controls are carried out, in the presence and in the absence of ethanol respectively, using 100 μl of cell suspension of 30,000 cells/cm^2 incubated with 100 μl of RPMI-10% FCS medium and ±0.5% of ethanol (v/v).
Before starting the study, the cells are rinsed with PBS buffer which contains neither calcium nor magnesium. The cells are then incubated with 200 μl of compound under test, or with the medium containing or not 0.5% of ethanol (controls) for either 24 or 48 hours under an atmosphere of a gaseous mixture of 95% air and 5% CO2, saturated with water, at 37° C., then submitted to the viability test with MTT according to the following protocol.
To 200 μl of culture medium are added 50 μl of MTT at 5 mg/ml in PBS buffer. After 4 hours of incubation at 37° C., the plate is centrifuged for 10 minutes at 3,000 rpm. The supernatant is removed and the cell pellet is resuspended in 100 μl of DMSO. This is left to incubate for 10 minutes with stirring at 37° C. The coloration developed is measured at 550 nm against DMSO. The optical density OD=f(living cells) can then be plotted as a function of time.

Structure (SMILES): CC1(C)N[Se]c2c([N+](=O)[O-])cccc21 [Bxt-51062, 3,3-Dimethyl-7-nitrobenzisoselenazoline]
GSH oxidase activity, nmole NADPH oxidized/min ([1]; compound + GSH + GR-NADPH + SOD and CAT): 79.29 nmole NADPH oxidized/min
GSH oxidase activity, nmole NADPH oxidized/min ([1]; compound + GSH + GR-NADPH + SOD): 78.78 nmole NADPH oxidized/min
GSH oxidase activity, nmole NADPH oxidized/min ([1]; compound + GSH + GR-NADPH + Se-GPx and SOD): 78.45 nmole NADPH oxidized/min
GSH oxidase activity, nmole NADPH oxidized/min ([1]; compound + GSH + GR-NADPH + Se-GPx): 80.61 nmole NADPH oxidized/min
GSH oxidase activity, nmole NADPH oxidized/min ([1]; compound + GSH + GR-NADPH ± IAA (iodoacetamide)): 76.25 nmole NADPH oxidized/min
GSH oxidase activity, nmole NADPH oxidized/min ([1]; compound + GSH + GR-NADPH, no further effector): 77.17 nmole NADPH oxidized/min
mortality at 0.195 µM ([2]; 24 h): 0%
mortality at 0.195 µM ([2]; 48 h): 2.22%
mortality at 0.391 µM ([2]; 24 h): 0%
mortality at 0.391 µM ([2]; 48 h): 0%
mortality at 0.781 µM ([2]; 24 h): 23.6%
mortality at 0.781 µM ([2]; 48 h): 32.5%
mortality at 1.562 µM ([2]; 24 h): 42.7%
mortality at 1.562 µM ([2]; 48 h): 58.5%
mortality at 3.125 µM ([2]; 24 h): 70.1%
mortality at 3.125 µM ([2]; 48 h): 83%
mortality at 6.25 µM ([2]; 24 h): 100%
mortality at 6.25 µM ([2]; 48 h): 100%
mortality at 12.5 µM ([2]; 24 h): 100%
mortality at 12.5 µM ([2]; 48 h): 100%
mortality at 25 µM ([2]; 24 h): 100%
mortality at 25 µM ([2]; 48 h): 100%
mortality at 50 µM ([2]; 24 h): 100%
mortality at 50 µM ([2]; 48 h): 100%

Structure (SMILES): CC(=O)N1[Se]c2c([N+](=O)[O-])cccc2C1(C)C [Bxt-57004, N-acetyl-3,3-dimethyl-7-nitrobenzisoselenazoline]
mortality at 0.195 µM ([2]; 24 h): 0%
mortality at 0.195 µM ([2]; 48 h): 17.4%
mortality at 0.391 µM ([2]; 24 h): 3.19%
mortality at 0.391 µM ([2]; 48 h): 12.8%
mortality at 0.781 µM ([2]; 24 h): 34.9%
mortality at 0.781 µM ([2]; 48 h): 38.6%
mortality at 1.562 µM ([2]; 24 h): 59.4%
mortality at 1.562 µM ([2]; 48 h): 60.5%
mortality at 3.125 µM ([2]; 24 h): 71.2%
mortality at 3.125 µM ([2]; 48 h): 69.1%
mortality at 6.25 µM ([2]; 24 h): 73.3%
mortality at 6.25 µM ([2]; 48 h): 76.4%
mortality at 12.5 µM ([2]; 24 h): 79.8%
mortality at 12.5 µM ([2]; 48 h): 75.8%
mortality at 25 µM ([2]; 24 h): 92.8%
mortality at 25 µM ([2]; 48 h): 88.4%
mortality at 50 µM ([2]; 24 h): 100%
mortality at 50 µM ([2]; 48 h): 100%

Structure (SMILES): CC1(C)c2cccc([N+](=O)[O-])c2[Se]N1CCO [Bxt-57001, N-(2-hydroxyethyl)-3,3-dimethyl-7-nitrobenzisoselenazoline]
mortality at 0.195 µM ([2]; 24 h): 0%
mortality at 0.195 µM ([2]; 48 h): 0%
mortality at 0.391 µM ([2]; 24 h): 0%
mortality at 0.391 µM ([2]; 48 h): 0%
mortality at 0.781 µM ([2]; 24 h): 16.9%
mortality at 0.781 µM ([2]; 48 h): 0%
mortality at 1.562 µM ([2]; 24 h): 29.4%
mortality at 1.562 µM ([2]; 48 h): 20%
mortality at 3.125 µM ([2]; 24 h): 23.9%
mortality at 3.125 µM ([2]; 48 h): 23.3%
mortality at 6.25 µM ([2]; 24 h): 55%
mortality at 6.25 µM ([2]; 48 h): 41.2%
mortality at 12.5 µM ([2]; 24 h): 75.3%
mortality at 12.5 µM ([2]; 48 h): 58.5%
mortality at 25 µM ([2]; 24 h): 99.1%
mortality at 25 µM ([2]; 48 h): 99.8%
mortality at 50 µM ([2]; 24 h): 99.8%
mortality at 50 µM ([2]; 48 h): 100%

Structure (SMILES): CC/C(=C(\c1ccccc1)c1ccc(OCCN2[Se]c3c([N+](=O)[O-])cccc3C2(C)C)cc1)c1ccccc1 [Bxt-57007, N-{2-[4-(1,2-diphenylbut-1-en-1-yl)phenoxy]ethyl}3,3-dimethyl-7-nitrobenzisoselenazoline]
mortality at 0.195 µM ([2]; 24 h): 0%
mortality at 0.195 µM ([2]; 48 h): 1.07%
mortality at 0.391 µM ([2]; 24 h): 1.02%
mortality at 0.391 µM ([2]; 48 h): 8.42%
mortality at 0.781 µM ([2]; 24 h): 8.39%
mortality at 0.781 µM ([2]; 48 h): 14.2%
mortality at 1.562 µM ([2]; 24 h): 12.9%
mortality at 1.562 µM ([2]; 48 h): 25.1%
mortality at 3.125 µM ([2]; 24 h): 13.3%
mortality at 3.125 µM ([2]; 48 h): 18.7%
mortality at 6.25 µM ([2]; 24 h): 19.4%
mortality at 6.25 µM ([2]; 48 h): 33.2%
mortality at 12.5 µM ([2]; 24 h): 28.6%
mortality at 12.5 µM ([2]; 48 h): 44.6%
mortality at 25 µM ([2]; 24 h): 36.6%
mortality at 25 µM ([2]; 48 h): 46.8%
mortality at 50 µM ([2]; 24 h): 40.8%
mortality at 50 µM ([2]; 48 h): 46.3%

Now from value to compound:

melting point: 127 °C
Structure (SMILES): CC(=O)N1CC(C)(C)c2cccc([N+](=O)[O-])c2[Se]1

melting point: 108 °C
Structure (SMILES): CC1(C)CN[Se]c2c([N+](=O)[O-])cccc21

melting point: 95 °C
Structure (SMILES): CC12CCC3c4ccc(O)cc4CC(CCCCCCCCN4[Se]c5c([N+](=O)[O-])cccc5C4(C)C)C3C1CCC2O (stereo not shown)

melting point: 128 °C
Structure (SMILES): CC12CCC3c4ccc(O)cc4CC(CCCCCCCC(=O)N4[Se]c5c([N+](=O)[O-])cccc5C4(C)C)C3C1CCC2O (stereo not shown)
